Reference: ChEMBL document CHEMBL1156314, “Synthesis and structure-activity relationships of antimalarial 4-oxo-3-carboxyl quinolones” (Bioorg Med Chem, 2010)

Experiments:
[1] = Membrane permeability at 10 uM at pH 4 by PAMPA method; assay type: ADME; settings: read-out: permeability
in vitro = settings: PAMPA, pH 7.4
[2] = pampa, pH 7.4, 10 µM

Row | Papp at 10 µM [1] | permeability [2] | SMILES | further results
1 | 5000 nm/s |  | CCOC(=O)c1cc2c(OC)cccc2nc1-c1ccc2c(c1)OCO2 | 
2 |  |  | CCOC(=O)c1c(-c2cccc([N+](=O)[O-])c2)[nH]c2cccc(OC)c2c1=O | permeability at 10 µM (in vitro): 1100 nm/s
3 | 5000 nm/s |  | CCOC(=O)c1c(-c2ccc3c(c2)OCO3)nc2cc(OC)ccc2c1Cl | 
4 |  | 145 10^-6 cm/s | NC(=O)N1c2ccccc2C=Cc2ccccc21 [CARBAMAZEPINE] | 
5 |  | 1.2 10^-6 cm/s | CNC(=C[N+](=O)[O-])NCCSCc1ccc(CN(C)C)o1.Cl [RANITIDINE HYDROCHLORIDE] | 
